Counter-ions that a name gives are not always drawn.
Tests used:
Format in all cases: physicochemical
[1] = Test 2: octanol/phosphate buffer partition coefficient of BPS with various cations; conditions: for PC of BPS, Excess × 20: cation added to give charges 20 times more; for PC of BPS, Equimolar amount: cation added to give equal charge; for effect of added compound on the partition coefficient of BPS (in words): octanol/phosphate buffer pH 7, compared to no ionic compound added
Protocol: (§1) BPS was dissolved in phosphate buffer solution having pH of 5 to 8 in a concentration of 240 μg/ml. Various cations were added to the mixtures to give equivalent charge to that of BPS or 5 times or 20 times more than that of BPS. The same volume of octanol as that of the aqueous phase was added to the mixture followed by shaking at 37° C. for an hour. After centrifugation, the concentration of the pharmaceutically active substance in the aqueous phase was measured to calculate the partition coefficient.
(§2) partition coefficient=concentration of the pharmaceutically active substance in the octanol phase/concentration of the pharmaceutically active substance in the aqueous phase
A variety of cations were examined with their effect if these cations would affect the partition coefficient of BPS in octanol/phosphate buffer solution (pH 7).
The pharmaceutically active substance was dissolved in an aqueous phase in a concentration of 240 μg/ml. Various cations were added to the solution to give equal charge to that of the pharmaceutically active substance or charges 20 times more than that of the substance. Then the same procedure as in Test 1 was applied to calculate the partition coefficient.

[2] = Test 1: effect of ratio of benzalkonium chloride added and pH on octanol/phosphate buffer partition coefficient of BPS
Protocol: as §1, §2

[3] = Test 3: in vitro release test of gel preparation using various cations; conditions: 10 ml phosphate buffer solution (pH 7.4) at 37° C.
Protocol: Each of the gel preparations obtained in Examples 1 to 9 and Comparative Examples 1 to 3 was evaluated, respectively, with regard to the release of the active substance in 10 ml of a phosphate buffer solution (pH 7.4) at 37° C.

[4] = octanol/phosphate buffer pH 7, 37° C., BPS 240 μg/ml

Molecule: CCCCCCCCCCCC[n+]1ccccc1.[Cl-] [Laurylpyridinium chloride]
- PC of BPS, Excess × 20 [1, 4]: 1200
- PC of BPS, Equimolar amount [1, 4]: 75.0

Molecule: CCCCCCCC[N+](C)(C)Cc1ccccc1.[Cl-] [Octyldimethylbenzylammonium chloride]
- PC of BPS, Excess × 20 [1, 4]: 568
- PC of BPS, Equimolar amount [1, 4]: 60.9

Molecule: CCCCCCCCCCCCCC[N+](C)(C)Cc1ccccc1.[Cl-] [Myristyldimethylbenzylammonium chloride]
- PC of BPS, Excess × 20 [1, 4]: 1210
- PC of BPS, Equimolar amount [1, 4]: 64.5

Molecule: CCCCCCCCCCCCCCCCCCCCCC[N+](C)(C)C.[Cl-] [Behenyltrimethylammonium chloride]
- PC of BPS, Equimolar amount [1, 4]: 59.5

Molecule: [Cl-].[Cl-].[Mg+2] [magnesium chloride, reference compound]
- effect of added compound on the partition coefficient of BPS (in words) [1]: no increase

Molecule: CCCCCCCCCCCC[N+](C)(C)C.[Cl-] [Lauryltrimethylammonium chloride]
- PC of BPS, Excess × 20 [1, 4]: 985
- PC of BPS, Equimolar amount [1, 4]: 83.5
- effect of added compound on the partition coefficient of BPS (in words) [1]: increase

Molecule: CCCNC(C)(C)COC(=O)c1ccccc1 [Meprylcaine hydrochloride, reference compound]
- PC of BPS, Excess × 20 [1, 4]: 53.3
- PC of BPS, Equimolar amount [1, 4]: 17.7
- effect of added compound on the partition coefficient of BPS (in words) [1]: increase

Molecule: CCN(CC)CC(=O)Nc1c(C)cccc1C [Lidocaine hydrochloride, reference compound]
- PC of BPS, Excess × 20 [1, 4]: 37.5
- PC of BPS, Equimolar amount [1, 4]: 17.1

Molecule: CCCCCCCCCCCC[N+](C)(C)Cc1ccccc1.[Cl-] [Lauryldimethylbenzylammonium chloride]
- PC of BPS, Excess × 20 [1, 4]: 1220
- PC of BPS, Equimolar amount [1, 4]: 71.2

Molecule: CC#CCC(C)[C@H](O)/C=C/[C@@H]1[C@H]2c3cccc(CCCC(=O)O)c3O[C@H]2C[C@H]1O (relative stereo) [BPS, (±)-(1R*,2R*,3aS*,8bS*)-2,3,3a,8b-tetrahydro-2-hydroxy-1-[(e)-(3S*)-3-hydroxy-4-methyl-1-octen-6-ynyl]-1H-cyclopenta[b]benzofuran-5-butanoic acid, reference compound]
- PC of BPS, no cation added ([1]; octanol/phosphate buffer pH 7, 37° C., BPS 240 μg/ml, cation added: None): 16.2
- partition coefficient of BPS as the pH increased ([2]; phosphate buffer pH 5 to 8, FIG. 1): decreased as the pH increased

Molecule: sorbitan sesquioleate [reference compound]
- effect of added compound on the partition coefficient of BPS (in words) [1]: no change

Molecule: CC(C)(C)CC(C)(C)c1ccc(OCCOCC[N+](C)(C)Cc2ccccc2)cc1 [Benzethonium chloride]
- PC of BPS, Excess × 20 [1, 4]: 1180
- PC of BPS, Equimolar amount [1, 4]: 70.8

Molecule: CCCCCCCCCCCCCCCCCC[N+](C)(C)C.[Cl-] [Stearyltrimethylammonium chloride]
- PC of BPS, Excess × 20 [1, 4]: 995
- PC of BPS, Equimolar amount [1, 4]: 83.4

Molecule: CC(=O)O.CCCCCCCCCCCCCCCCCCN [Stearylamine acetate]
- PC of BPS, Excess × 20 [1, 4]: 158
- PC of BPS, Equimolar amount [1, 4]: 32.6

Molecule: CCCCCCCCCCCCCCCCCC[N+](C)(C)Cc1ccccc1.[Cl-] [Stearyldimethylbenzylammonium chloride]
- PC of BPS, Excess × 20 [1, 4]: 1350
- PC of BPS, Equimolar amount [1, 4]: 62.3

Molecule: Cl.N=C(N)NCCC[C@H](N)C(=O)O [arginine hydrochloride, reference compound]
- effect of added compound on the partition coefficient of BPS (in words) [1]: no increase
- release of the active substance from gel preparation [3]: no delayed release

Molecule: [Cl-].[Na+] [sodium chloride]
- partition coefficient of BPS when sodium chloride was added to make the solution isotonic ([2]; 20 times of equivalent molar ratio of benzalkonium chloride included): decreased

Molecule: CC(=O)O.CCCCCCCC/C=C\CCCCCCCCN [Oleylamine acetate]
- PC of BPS, Excess × 20 [1, 4]: 473
- PC of BPS, Equimolar amount [1, 4]: 30.4

Molecule: CCCCCCCCCCCCOS(=O)(=O)[O-].[Na+] [sodium lauryl sulfate, reference compound]
- effect of added compound on the partition coefficient of BPS (in words) [1]: no change

Molecule: protamine sulfate [reference compound]
- effect of added compound on the partition coefficient of BPS (in words) [1]: did not affect

Molecule: O=S(=O)([O-])[O-].[Mg+2] [magnesium sulfate]
- release of the active substance from gel preparation [3]: no delayed release

Molecule: CCCCCCCCCCCCCCCC[N+](C)(C)C.[Cl-] [Cetyltrimethylammonium chloride]
- PC of BPS, Excess × 20 [1, 4]: 935
- PC of BPS, Equimolar amount [1, 4]: 91.6

Molecule: CCCC[N+](CCCC)(CCCC)Cc1ccccc1.[Cl-] [Tributylbenzylammonium chloride]
- PC of BPS, Excess × 20 [1, 4]: 140
- PC of BPS, Equimolar amount [1, 4]: 24.5

Molecule: CC[N+](CC)(CC)Cc1ccccc1.[Cl-] [Triethylbenzylammonium chloride]
- effect of added compound on the partition coefficient of BPS (in words) [1]: increase
